Source: patent publication US4689218A, “Effervescent composition with analgesic activity” (priority 1985, dated 1987)
Entries after “also recorded” stand apart in the source; their conditions may differ.

Columns and labels:
[1] = cited from earlier work
oral and gastric mucosa = conditions: oral administration (b7), mucosa of the mouth, aqueous suspension (b9); cited from earlier work
[2] = oral route, tablet; cited from earlier work
[3] = Stability (degradation, colour) of lysine-containing preparation; type: physicochemical; conditions: larger amounts of lysine (more than 30-40% of arginine substituted)

SMILES	Solubility in water [1]	Irritability of mucosa (oral and gastric mucosa)	Kinetics of absorption [2]	Degradation / brown colour of the pharmaceutical preparation [3]
CC(C)Cc1ccc(C(C)C(=O)O)cc1 (stereo not shown) [Ibuprofen, 2-(4-isobutyl-phenyl)-propionic acid]	very low solubility in water	some irritability of gastric mucosa; also recorded: irritant for the mucosa of the mouth	relatively slow kinetics of absorption	
NCCCC[C@H](N)C(=O)O [lysine]				easily degrades making of a brown colour the pharmaceutical preparation
